The text below walks through data of patent US7125838B1, “Peptides containing N-substituted L-amino acids for preventing β-strand association” (Senexis Limited, priority 1999, dated 2006).

Non-standard residues stand in square brackets, D forms with d. Residues, ends and D or L forms follow the SMILES beside them. NMeR = CN[C@@H](CCCNC(=N)N)C(=O)O; NMeF = CN[C@@H](Cc1ccccc1)C(=O)O; NMeL = CN[C@@H](CC(C)C)C(=O)O

Data set [1] has as its target T1, synthetic peptide fragment corresponding to residues 11 to 25 of the Alzheimer's Aβ peptide (Homo sapiens, UniProt P05067).
T1 construct: synthetic peptide fragment corresponding to residues 11 to 25 of the Alzheimer's Aβ peptide; host or cells: chemical synthesis (synthetic peptide)
In words: Thioflavin T fluorescence assay of Aβ peptide fragment aggregation into amyloid fibrils. In kind it is biochemical. Here is the method:
The capacity of Peptide X (SEQ ID NO:2) to inhibit the aggregation of a synthetic peptide fragment corresponding to residues 11 to 25 of the Alzheimer's Aβ peptide into amyloid fibrils was determined quantitatively using a standard assay based on the amyloid-dependent fluorescence of thioflavin T at 482 nm (Levine, 1993).
Peptide X (SEQ ID NO:2) was dissolved in water to a concentration of 10 mM (about 10 mg/ml). Alzheimer's Aβ peptide fragment, at a concentration of 50 μM (about 0.1 mg/ml) in 50 mM sodium acetate buffer (pH 5.0), was incubated at 25° C. in the absence or presence of Peptide X at concentrations ranging from 100 μM to 1 mM; the aggregation of the Aβ peptide fragment into insoluble β-fibres in the solutions was determined quantitatively after 20 minutes by measuring the fluorescence of […] added thioflavin T at 482 nm using an excitation wavelength of 440 nm.

The nature of data set [2]: Solubility in aqueous solutions. Particulars: over a wide range of pH values, completely soluble. In kind it is physicochemical. From the text: The two positively charged arginine side chains assist the peptide to penetrate cell membranes and the blood-brain barrier by making electrostatic interactions with the negatively charged phosphate head groups of their constituent phospholipid molecules, resulting in the formation of inverted micelles which carry the peptide molecules across these membranes.

The next data set has as its system Aβ peptide. Description: Inhibition of Aβ peptide aggregation into β-sheets (method not described). In kind it is biochemical.

The term inhibition denotes how much of the control response was suppressed. A low value points to a response near the control. Usually solubility stands for the dissolved amount per volume that the medium holds. In data set [1] (100 μM Peptide X, 50 μM Aβ fragment, 50 mM sodium acetate pH 5.0, 25° C., 20 minutes, thioflavin T at 482 nm), `CC(=O)N[C@@H](CCCNC(=N)N)C(=O)N(C)[C@@H](CCCNC(=N)N)C(=O)N[C@@H](CC(C)C)C(=O)N(C)[C@@H](CC(C)C)C(=O)N[C@@H](Cc1ccccc1)C(=O)N(C)[C@@H](Cc1ccccc1)C(N)=O` [Peptide X, Nα-acetyl-(L-arginine)-(Nα-methyl-L-arginine)-(L-leucine)-(Nα-methyl-L-leucine)-(L-phenylalanine)-(Nα-methyl-L-phenylalanine)-NH2] (Ac-R[NMeR]L[NMeL]F[NMeF]-NH2) came in with an inhibition at 100 µM of over 70%. The “disaggregation of preformed amyloid fibrils” value in data set [1] (Peptide X added to the Aβ peptide fragment after incubation) was “able to disaggregate preformed amyloid fibrils”. Moreover, the “reduction in Alzheimer's Aβ peptide aggregation (FIG. 6)” value in data set [1] (Peptide X concentration of 100 μM) is listed as 70%. The results for the solubility in data set [2] and in data set [2] (approximate equivalent of 10 mM) were at least 10 mM and at least 10 mg/mL, respectively.
In the case of “(L-arginine)-(L-lysine)-(L-valine)-(Nα-methyl-L-phenylalanine)-(L-tyrosine)-(L-threonine)-(L-tryptophan) [Arg-Lys-Val-mePhe-Tyr-Thr-Trp]”, the “inhibiting Aβ peptide aggregation into β-sheets” value in the data set on Aβ peptide is “effective”.
